This note sets out measurements from patent publication US9879023B2, “Therapeutic compounds” (Gilead Sciences, Inc., priority 2011, dated 2018).

Where two headings read alike, the source gives them in different places.

The assay relates to HIV-IIIb (MT-4 cells). Nature of the assay: Test A: Antiviral Assays in MT4 Cells. Type of assay: cell-based. Here is the method: Test A: Antiviral Assays in MT4 Cells
For the antiviral assay utilizing MT-4 cells, 0.4 μL of […] test concentration of 3-fold serially diluted compound in DMSO was added to 40 μL of cell growth medium (RPMI 1640, 10% FBS, 1% penicilline/Streptomycine, 1% L-Glutamine, 1% HEPES) in each well of 384-well assay plates (10 concentrations) in quadruplicate.
1 mL aliquots of 2×10e6 MT-4 cells are pre-infected for 1 and 3 hrs respectively, @37° C. with 25 uL (MT4) or of either cell growth medium (mock-infected) or a fresh 1:250 dilution of an HIV-IIIb concentrated ABI stock (0.004 m.o.i. for MT4 cells). Infected and uninfected cells are diluted in cell growth medium and 35 uL of 2000 (for MT4) cells is added to each well of the assay plates.
Assay plates were then incubated in a 37° C. incubator. After 5 days of incubation, 25 μl of 2× concentrated CellTiter-Glo™ Reagent (catalog # G7573, Promega Biosciences, Inc., Madison, Wis.) was added to each well of the assay plate. Cell lysis was carried out by incubating at room temperature for 2-3 min and then chemiluminescence was read using the Envision reader (PerkinElmer). […]

[1] abbreviates: Human immunodeficiency virus 1, IIIB, MT4, 120 h, MT-4 cells infected with HIV-IIIb (0.004 m.o.i.), 5 days incubation, CellTiter-Glo readout, read-out: EC50.
Setting [2] is: MT-4 cells infected with HIV-IIIb (0.004 m.o.i.), 5 days incubation, CellTiter-Glo readout, read-out: EC50.

By EC50 is commonly meant the concentration giving half of the maximal effect. Take `Cc1cc2nc(C#CC3CC3)sc2c(-c2ccc(Cl)cc2)c1[C@H](OC(C)(C)C)C(=O)O` [Compound 14]: the EC50 under setting [1] came out at 718 nM. Still for that read-out and setting: with `Cc1cc2c(sc(=O)n2Cc2cccc(C(F)(F)F)c2)c(-c2ccc3c4c(ccnc24)CCO3)c1[C@H](OC(C)(C)C)C(=O)O` (atropisomer, axis not shown) [Compound 73, (S)-2-tert-butoxy-2-((S)-7-(2,3-dihydropyrano[4,3,2-de]quinolin-7-yl)-5-methyl-2-oxo-3-(3-(trifluoromethyl)benzyl)-2,3-dihydrobenzo[d]thiazol-6-yl)acetic acid] the figure was 52.2 nM. The same measure, in the same setting: in the case of `Cc1cc2nc(OC(C)C)sc2c(-c2ccc3c4c(ccnc24)CCO3)c1[C@H](OC(C)(C)C)C(=O)O` (atropisomer, axis not shown) [Compound 70, (S)-2-tert-butoxy-2-((S)-7-(2,3-dihydropyrano[4,3,2-de]quinolin-7-yl)-2-isopropoxy-5-methylbenzo[d]thiazol-6-yl)acetic acid] it was 80.8 nM; in that of `Cc1cc2nc(C(=O)C3=CCC3)sc2c(-c2ccc(Cl)cc2)c1[C@H](OC(C)(C)C)C(=O)O` [Compound 14b], 480 nM. Take `Cc1cc2nc(N(C)C(C)C)sc2c(-c2ccc3c4c(ccnc24)CCO3)c1[C@H](OC(C)(C)C)C(=O)O` (atropisomer, axis not shown) [Compound 47, (S)-2-tert-butoxy-2-((R)-7-(2,3-dihydropyrano[4,3,2-de]quinolin-7-yl)-2-(isopropyl(methyl)amino)-5-methylbenzo[d]thiazol-6-yl)acetic acid]: the EC50 under setting [2] was found to be 26500 nM. With `Cc1cc2nc(C3=CCCC3)sc2c(-c2ccc3c4c(ccnc24)CCO3)c1[C@H](OC(C)(C)C)C(=O)O` (atropisomer, axis not shown) [Compound 78, (S)-2-tert-butoxy-2-((S)-2-cyclopentenyl-7-(2,3-dihydropyrano[4,3,2-de]quinolin-7-yl)-5-methylbenzo[d]thiazol-6-yl)acetic acid], the EC50 under setting [2] was 726 nM. On the same count and under the same terms, in the case of `Cc1cc2nc(C3CC3)sc2c(-c2ccc3c(c2Cl)NCCO3)c1[C@H](OC(C)(C)C)C(=O)O` (atropisomer, axis not shown) [Compound 86, (S)-2-tert-butoxy-2-((S)-7-(5-chloro-3,4-dihydro-2H-benzo[b][1,4]oxazin-6-yl)-2-cyclopropyl-5-methylbenzo[d]thiazol-6-yl)acetic acid] it was 61.7 nM. `Cc1cc2nc(C(C)C)sc2c(-c2ccc3c4c(ccnc24)CCO3)c1[C@H](OC(C)(C)C)C(=O)O` (atropisomer, axis not shown) [Compound 88, (S)-2-tert-butoxy-2-((S)-7-(2,3-dihydropyrano[4,3,2-de]quinolin-7-yl)-2-isopropyl-5-methylbenzo[d]thiazol-6-yl)acetic acid]: under setting [1], the half-maximal effective concentration (EC50) turned out to be 13.3 nM. For the molecule `CNC(=O)c1nc2cc(C)c([C@H](OC(C)(C)C)C(=O)O)c(-c3ccc4c5c(ccnc35)CCO4)c2s1` (atropisomer, axis not shown) [Compound 97, (S)-2-tert-butoxy-2-((S)-7-(2,3-dihydropyrano[4,3,2-de]quinolin-7-yl)-5-methyl-2-(methylcarbamoyl)benzo[d]thiazol-6-yl)acetic acid], the EC50 under setting [1] came out at 1240 nM. Same read-out and setting: with `Cc1cc2nc(C(F)F)sc2c(-c2ccc3c4c(ccnc24)CCO3)c1[C@H](OC(C)(C)C)C(=O)O` (atropisomer, axis not shown) [Compound 92, (S)-2-tert-butoxy-2-((S)-2-(difluoromethyl)-7-(2,3-dihydropyrano[4,3,2-de]quinolin-7-yl)-5-methylbenzo[d]thiazol-6-yl)acetic acid] the figure was 353 nM.

As for `Cc1cc2nc(C3CC3)sc2c(-c2ccc3c(c2Cl)NCCO3)c1[C@H](OC(C)(C)C)C(=O)O` (atropisomer, axis not shown) [Compound 87, (S)-2-tert-butoxy-2-((R)-7-(5-chloro-3,4-dihydro-2H-benzo[b] [1,4]oxazin-6-yl)-2-cyclopropyl-5-methylbenzo[d]thiazol-6-yl)acetic acid], the EC50 under setting [2] was found to be 1570 nM. For `COc1nc2cc(C)c([C@H](OC(C)(C)C)C(=O)O)c(-c3ccc4c5c(ccnc35)CCO4)c2s1` (atropisomer, axis not shown) [Compound 66, (S)-2-tert-butoxy-2-((S)-7-(2,3-dihydropyrano[4,3,2-de]quinolin-7-yl)-2-methoxy-5-methylbenzo[d]thiazol-6-yl)acetic acid], under setting [1], the EC50 worked out at 22.5 nM. Same read-out and setting: with `Cc1cc2ncsc2c(-c2ccc(Cl)cc2)c1[C@H](OC(C)(C)C)C(=O)O` [Compound 5L, (S)-2-tert-butoxy-2-(7-(4-chlorophenyl)-5-methylbenzo[d]thiazol-6-yl)acetic acid] the figure was 2950 nM. For `Cc1cc2nc(N(C)CC3OCCO3)sc2c(-c2ccc3c4c(ccnc24)CCO3)c1[C@H](OC(C)(C)C)C(=O)O` (atropisomer, axis not shown) [Compound 59, (S)-2-((S)-2-(((1,3-dioxolan-2-yl)methyl)(methyl)amino)-7-(2,3-dihydropyrano[4,3,2-de]quinolin-7-yl)-5-methylbenzo[d]thiazol-6-yl)-2-tert-butoxyacetic acid], the EC50 under setting [2] amounted to 149 nM. Same read-out and setting: with `Cc1cc2nc(N(C)CC(C)C)sc2c(-c2ccc3c4c(ccnc24)CCO3)c1[C@H](OC(C)(C)C)C(=O)O` (atropisomer, axis not shown) [Compound 49, (S)-2-tert-butoxy-2-((R)-7-(2,3-dihydropyrano[4,3,2-de]quinolin-7-yl)-2-(isobutyl(methyl)amino)-5-methylbenzo[d]thiazol-6-yl)acetic acid] the figure was 13300 nM.

Turning to `Cc1cc2c(sc(=O)n2C)c(-c2ccc3c4c(ccnc24)CCO3)c1[C@H](OC(C)(C)C)C(=O)O` (atropisomer, axis not shown) [Compound 68, (S)-2-tert-butoxy-2-((S)-7-(2,3-dihydropyrano[4,3,2-de]quinolin-7-yl)-3,5-dimethyl-2-oxo-2,3-dihydrobenzo[d]thiazol-6-yl)acetic acid], under setting [1], the EC50 turned out to be 292 nM. Still for that read-out and setting: in the case of `Cc1cc2c(sc(=O)n2Cc2ccccc2)c(-c2ccc3c4c(ccnc24)CCO3)c1[C@H](OC(C)(C)C)C(=O)O` (atropisomer, axis not shown) [Compound 72, (S)-2-((S)-3-benzyl-7-(2,3-dihydropyrano[4,3,2-de]quinolin-7-yl)-5-methyl-2-oxo-2,3-dihydrobenzo[d]thiazol-6-yl)-2-tert-butoxyacetic acid] it was 29.8 nM. Still for that read-out and setting: with `Cc1nc2cc(C)c([C@H](OC(C)(C)C)C(=O)O)c(-c3ccc(Cl)cc3)c2s1` [Compound 7, (S)-2-tert-butoxy-2-(7-(4-chlorophenyl)-2,5-dimethylbenzo[d]thiazol-6-yl)acetic acid] the figure was 257 nM; with `Cc1cc2nc(C3CC3)sc2c(-c2ccc3c4c(ccnc24)CCO3)c1[C@H](OC(C)(C)C)C(=O)O` [Compound 22, (S)-2-tert-butoxy-2-((R)-2-cyclopropyl-7-(2,3-dihydropyrano[4,3,2-de]quinolin-7-yl)-5-methylbenzo[d]thiazol-6-yl)acetic acid], 170 nM; with `Cc1cc2nc(C3CC3)sc2c(-c2ccc3c4c(cccc24)CCO3)c1[C@H](OC(C)(C)C)C(=O)O` [Compound 85, (S)-2-tert-butoxy-2-((S)-2-cyclopropyl-7-(2,3-dihydrobenzo[de]chromen-7-yl)-5-methylbenzo[d]thiazol-6-yl)acetic acid], 66.4 nM. With `Cc1cc2nc(C3CC3)sc2c(-c2ccc3c4c(ccnc24)CCO3)c1[C@H](OC(C)(C)C)C(=O)O` [Compound 21, (S)-2-tert-butoxy-2-((S)-2-cyclopropyl-7-(2,3-dihydropyrano[4,3,2-de]quinolin-7-yl)-5-methylbenzo[d]thiazol-6-yl)acetic acid], the EC50 under setting [2] was 14.9 nM. In the case of `Cc1cc2nc(N(C)Cc3ccccc3)sc2c(-c2ccc3c4c(ccnc24)CCO3)c1[C@H](OC(C)(C)C)C(=O)O` [Compound 63, (2S)-2-(2-(benzyl(methyl)amino)-7-(2,3-dihydropyrano[4,3,2-de]quinolin-7-yl)-5-methylbenzo[d]thiazol-6-yl)-2-tert-butoxyacetic acid], under setting [1], the EC50 worked out at 351 nM. Consider `CCN(CC)c1nc2cc(C)c([C@H](OC(C)(C)C)C(=O)O)c(-c3ccc4c5c(ccnc35)CCO4)c2s1` (atropisomer, axis not shown) [Compound 45, (S)-2-tert-butoxy-2-((S)-2-(diethylamino)-7-(2,3-dihydropyrano[4,3,2-de]quinolin-7-yl)-5-methylbenzo[d]thiazol-6-yl)acetic acid], for which the EC50 under setting [1] came out at 67 nM.

Turning to `Cc1cc2nc(N(C)C)sc2c(-c2ccc3c4c(ccnc24)CCO3)c1[C@H](OC(C)(C)C)C(=O)O` (atropisomer, axis not shown) [Compound 43, (S)-2-tert-butoxy-2-((R)-7-(2,3-dihydropyrano[4,3,2-de]quinolin-7-yl)-2-(dimethylamino)-5-methylbenzo[d]thiazol-6-yl)acetic acid], a half-maximal effect (Human immunodeficiency virus 1, IIIB, MT4, 120 h) (EC50) was put at 5090 nM. Consider `Cc1cc2nc(CC(C)C)sc2c(-c2ccc3c4c(ccnc24)CCO3)c1[C@H](OC(C)(C)C)C(=O)O` (atropisomer, axis not shown) [Compound 84, (S)-2-tert-butoxy-2-((R)-7-(2,3-dihydropyrano[4,3,2-de]quinolin-7-yl)-2-isobutyl-5-methylbenzo[d]thiazol-6-yl)acetic acid], for which, under setting [2], the concentration for a half-maximal effect (EC50) worked out at 14900 nM.
